In brackets after ≈: the same amount, converted by molar mass.
What was measured:
[1] = Transport across Caco-2 cell monolayers, apical to basolateral; type: in vitro ADME, human; details: human, Caco-2, pH 7.4; for Papp at 100 min, 53 μM: read-out: apparent permeability coefficient Papp at 53 μM; for Papp at 100 min, 106 μM: read-out: apparent permeability coefficient Papp at 106 μM
Procedure: (§1) Caco-2 cells were maintained in a DMEM at pH7.4, supplemented with 10% fetal bovine serum, 2 mM L-glutamine, 1% non-essential amino acid solution and 0.1% penicillin-streptomycin solution in a humidified atmosphere (5% CO2, 95% air, at 37°C). Cells were grown until 60-70% confluence. Cells from passages 20-40 were used for all experiments. Cells were seeded on tissue culture polycarbonate membrane filters (pore size: 3.0 μm) in 6-well Transwell plates (Corning, USA) at a seeding density of 2 × 10^4cells/cm^2. Culture medium was added to both the donor and the acceptor compartments. Medium was changed every two days. Cells were left to differentiate for 15-21 days after seeding with monitoring of trans-epithelial electrical resistance (TEER) values with a Millicell electrical resistance system (Millipore, USA) and the value should be higher than 600Ω.cm^2.
(§2) Transport experiment across the Caco-2 cell monolayers at pH7.4 was performed. Caco-2 cell monolayers in Transwell (6-well) plates were used for transport studies when they were differentiated and the monolayer was intact, as checked by measuring TEER. Prior to the experiment, the cells were washed twice with phosphate buffered saline (PBS) and pre-equilibrated for one hour with HBSS buffered with 30 mM n-(2-hydroxyethyl) piperazine-n-(2-ethanosulfonic acid) (HEPES) at pH7.4. After medium was removed, the cells were treated with sample solutions (concentrations of 53 μM and 106 μM in HBSS at pH7.4) in an apical compartment. Samples (1 mL) were taken under sink conditions at 0, 5, 20, 40, 60, 80 and 100 minutes from the basolateral side and replaced with an equal volume of fresh HBSS solution. The amount of the compounds from the basolateral side was determined on a UV-spectrophotometer (Thermo Scientific, USA) at 228 nm. Results were expressed as cumulative transport as a function of time. Apparent permeability coefficient was calculated according to the following equation: […]
(§3) where Papp is the apparent permeability coefficient (cm/s), dQ/dt (μg/s) is the rate of appearance of sample on the basolateral side, A is the surface area of the monolayer (cm^2) and C0 (μg/mL) is the initial drug concentration in the donor compartment. All rate constants were obtained from the permeation profiles of each compound. Statistical significance was evaluated with one-way analysis of variance (one-way ANOVA). A value of P < 0.05 was considered statistically significant.

Caco-2 cell monolayers = assay: as above; type: in vitro ADME, human; details: for Papp at 53 μM / Papp at 106 μM: apical to basolateral, pH7.4, mean (SD), n = 3
Procedure: as §1, §2, §3

[2] = system: carrageenan-induced rat paw edema; design: method as in doi:10.1055/s-2006-961309; details: compound D from a hexane extract of Z. cassumunar; cited from earlier work
[3] = system: uterus of non-pregnant rat; design: method as in PMID 3671553; details: cited from earlier work
porcine liver esterase = assay: Enzyme hydrolysis by porcine liver esterase, monitored by HPLC; type: in vitro ADME; details: 10 μM, 37°C
Procedure: Compound 1 (2 mL, 10 μM solution) was pre-incubated at 37°C and 200 μL of esterase enzyme (porcrine liver, 750 units) was added. Samples (200 μL each) were taken at 5, 10, 20, 30 and 60 minutes and added to 200 μL of methanol. Mixtures were vortexed to stop enzymatic activity. Samples were then centrifuged for five minutes at 14,000 × g (Lab Essentials, USA). Supernatant was injected to the HPLC system for the determination of ester pro-drugs and compound D. This procedure was repeated for compounds 2 and 3.

[4] = Chemical hydrolysis in transport medium (HBSS); type: physicochemical; details: 53 μM and 106 μM in transport medium (HBSS pH7.4), stored at 4°C for 96 hours
Procedure: Solution of compound 1, 2 and 3 at 53 μM and 106 μM were prepared in Hank's balanced salt solution (HBSS) at pH7.4. All solutions were kept at 4°C for 96 hours and each solution was then analyzed by HPLC at 12, 24, 48, 72 and 96 hours to determine the hydrolysis product.

[5] = system: Mycobacterium tuberculosis H37Ra; design: method as in PMID 17691048; details: cited from earlier work
[6] = design: method as in PMID 17691048; details: human vero cell line, cited from earlier work
[7] = system: herpes simplex virus (HSV-1); design: method as in PMID 17691048; details: vero cell line; cited from earlier work
[8] = apical to basolateral direction

SMILES	Papp at 100 min, 53 μM [1]	Papp at 100 min, 106 μM [1]	Papp at 53 μM (Caco-2 cell monolayers; 53 μM)	cumulative transport at 106 μM (Caco-2 cell monolayers; [8])	Papp at 106 μM (Caco-2 cell monolayers)	effect on edema formation [2]	uterine relaxant effect [3]	hydrolysis during the transport across Caco-2 cell monolayers (Caco-2 cell monolayers)	cumulative transport at 53 μM (Caco-2 cell monolayers; 53 μM, apical to basolateral direction)	time in which the ester hydrolysis was completed (porcine liver esterase)	time after which hydrolysis product compound D was detected by HPLC [4]	Minimal inhibitory concentration [5]	cytotoxicity IC50 [6]	anti-HSV-1 IC50 [7]	cytotoxicity ([6]; at anti-HSV-1 IC50)
COc1ccc(/C=C/CCO)cc1OC [Compound D, (E)-4-(3,4-dimethoxyphenyl)but-3-en-1-ol]	8.53 ×10⁻⁶ cm/s	16.4 ×10⁻⁶ cm/s	8.53 (0.83)** 10^-6cm/s	cumulative transport close to compound 3	16.38 (0.61)** 10^-6cm/s	potent inhibitory effect on edema formation	dose dependent uterine relaxant effect	–	–	–	–	–	–	–	–
CCCCC/C=C\C/C=C\CCCCCCCC(=O)OCC/C=C/c1ccc(OC)c(OC)c1 [Compound 1, (E)-4-(3,4-dimethoxyphenyl)but-3-en-1-yl linoleate]	13.9 ×10⁻⁶ cm/s	14.3 ×10⁻⁶ cm/s	13.94 (0.60) 10^-6cm/s	higher cumulative transport over other two fatty acid ester	14.33 (0.17) 10^-6cm/s	–	–	did not occur	highest cumulative transport	≤ 10 min	24 h	200 µg/mL (≈ 425 µM)	–	–	–
CCCCCCCCCCCCCCCC(=O)OCC/C=C/c1ccc(OC)c(OC)c1 [Compound 3, (E)-4-(3,4-dimethoxyphenyl)but-3-en-1-yl palmitate]	7.48 ×10⁻⁶ cm/s	8.6 ×10⁻⁶ cm/s	7.48 (0.31)** 10^-6cm/s	–	8.60 (0.55)** 10^-6cm/s	–	–	did not occur	–	≤ 10 min	24 h	200 µg/mL (≈ 448 µM)	38 µg/mL	–	–
CCCCCCCC/C=C\CCCCCCCC(=O)OCC/C=C/c1ccc(OC)c(OC)c1 [Compound 2, (E)-4-(3,4-dimethoxyphenyl)but-3-en-1-yl oleate]	9.45 ×10⁻⁶ cm/s	10.1 ×10⁻⁶ cm/s	9.45 (0.29) 10^-6cm/s	–	10.08 (0.32) 10^-6cm/s	–	–	did not occur	–	≤ 10 min	24 h	100 µg/mL (≈ 212 µM)	–	42.6 µg/mL	without cytotoxicity

From publication PMC2759945, “Cellular transport of anti-inflammatory pro-drugs originated from a herbal formulation of Zingiber cassumunar and Nigella sativa” (Chinese Medicine, 2009)
